Laboratory results: patent publication US10787452B2 (Vertex Pharmaceuticals Incorporated, priority 2012, dated 2020)
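Further: compound concentration needed to lower the Cisplatin-alone IC50 by a set fold.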

The compounds below were run on HCT116 colorectal cancer cells (assay: Cisplatin sensitization assay (96 h cell viability MTS)). Details: 96 h MTS, compound plus Cisplatin.
Assay type: cell-based
Procedure: Compounds can be screened for their ability to sensitize HCT116 colorectal cancer cells to Cisplatin using a 96 h cell viability (MTS) assay. […] Compounds and Cisplatin are then both added simultaneously to the cell media in 2-fold serial dilutions from a top final concentration of 10 μM as a full matrix of concentrations in a final cell volume of 200 μl, and the cells are then incubated at 37° C. in 5% CO2. After 96 h, 40 μl of MTS reagent (Promega G358a) is added to each well and the cells are incubated for 1 h at 37° C. in 5% CO2.
With `Nc1nn2cc(F)cnc2c1C(=O)Nc1cnccc1-n1cccn1` [I-N-26, N-(4-(1H-pyrazol-1-yl)pyridin-3-yl)-2-amino-6-fluoropyrazolo[1,5-a]pyrimidine-3-carboxamide] the “Cisplatin Sensitization Assay” value was “+ (Compounds with a Cisplatin sensitization value >0.2 μM but <5 μM are marked with “+.”)”.
In the case of `CC(C)(C#N)c1cnc2c(C(=O)Nc3cnccc3N3CCN(C4COC4)CC3)c(N)nn2c1` [I-N-142, 2-amino-6-(2-cyanopropan-2-yl)-N-(4-(4-(oxetan-3-yl)piperazin-1-yl)pyridin-3-yl)pyrazolo[1,5-a]pyrimidine-3-carboxamide], the “Cisplatin Sensitization Assay” value was “++ (Compounds with a Cisplatin sensitization value >0.02 μM but <0.2 μM are marked with “++.”)”.
In the case of `Nc1nn2cc(F)cnc2c1C(=O)Nc1cnccc1-n1ccnc1C(F)(F)F` [I-N-219, 2-amino-6-fluoro-N-(4-(2-(trifluoromethyl)-1H-imidazol-1-yl)pyridin-3-yl)pyrazolo[1,5-a]pyrimidine-3-carboxamide], the “Cisplatin Sensitization Assay” value was “+++ (Compounds with a Cisplatin sensitization value of <0.02 μM are marked with “+++.”)”.
In the case of `CN1CCN(c2ccncc2NC(=O)c2c(N)nn3cc(C(C)(C)C#N)cnc23)CC1` [I-N-76, 2-amino-6-(2-cyanopropan-2-yl)-N-(4-(4-methylpiperazin-1-yl)pyridin-3-yl)pyrazolo[1,5-a]pyrimidine-3-carboxamide], the “Cisplatin Sensitization Assay” value was “+++ (Compounds with a Cisplatin sensitization value of <0.02 μM are marked with “+++.”)”.
In the case of `Nc1nn2cc(F)cnc2c1C(=O)Nc1cncc(F)c1N1CCC(n2ccnc2)CC1` [I-N-288, N-(4-(4-(1H-imidazol-1-yl)piperidin-1-yl)-5-fluoropyridin-3-yl)-2-amino-6-fluoropyrazolo[1,5-a]pyrimidine-3-carboxamide], the “Cisplatin Sensitization Assay” value was “+++ (Compounds with a Cisplatin sensitization value of <0.02 μM are marked with “+++.”)”.
`Nc1nn2cc(F)cnc2c1C(=O)Nc1cncc(F)c1N1CCC(N2CCOCC2)CC1` [I-N-189, 2-amino-6-fluoro-N-(5-fluoro-4-(4-morpholinopiperidin-1-yl)pyridin-3-yl)pyrazolo[1,5-a]pyrimidine-3-carboxamide] was tested, and the “Cisplatin Sensitization Assay” value was “+++ (Compounds with a Cisplatin sensitization value of <0.02 μM are marked with “+++.”)”.
`CN1CCC(c2ccncc2NC(=O)c2c(N)nn3cc(C(C)(C)C#N)cnc23)CC1` [I-C-23, 2-amino-6-(2-cyanopropan-2-yl)-N-(4-(1-methylpiperidin-4-yl)pyridin-3-yl)pyrazolo[1,5-a]pyrimidine-3-carboxamide] was tested, and the “Cisplatin Sensitization Assay” value was “+ (Compounds with a Cisplatin sensitization value >0.2 μM but <5 μM are marked with “+.”)”.
For `CCN1CCCC1C(=O)N1CCN(c2c(F)cncc2NC(=O)c2c(N)nn3cc(F)cnc23)CC1` (stereo not shown) [I-N-185, 2-amino-N-(4-(4-(1-ethylpyrrolidine-2-carbonyl)piperazin-1-yl)-5-fluoropyridin-3-yl)-6-fluoropyrazolo[1,5-a]pyrimidine-3-carboxamide], the “Cisplatin Sensitization Assay” value was “++ (Compounds with a Cisplatin sensitization value >0.02 μM but <0.2 μM are marked with “++.”)”.
`Nc1nn2cc(F)cnc2c1C(=O)Nc1cncc(F)c1N1CCC(C(=O)N2CCOCC2)CC1` [I-G-36, 2-amino-6-fluoro-N-(5-fluoro-4-(4-(morpholine-4-carbonyl)piperidin-1-yl)pyridin-3-yl)pyrazolo[1,5-a]pyrimidine-3-carboxamide] was tested, and the “Cisplatin Sensitization Assay” value was “+++ (Compounds with a Cisplatin sensitization value of <0.02 μM are marked with “+++.”)”.
`CN1CCC(Oc2c(F)cncc2NC(=O)c2c(N)nn3cc(F)cnc23)CC1` [I-O-89, 2-amino-6-fluoro-N-(5-fluoro-4-((1-methylpiperidin-4-yl)oxy)pyridin-3-yl)pyrazolo[1,5-a]pyrimidine-3-carboxamide] was tested, and the “Cisplatin Sensitization Assay” value was “++ (Compounds with a Cisplatin sensitization value >0.02 μM but <0.2 μM are marked with “++.”)”.
`Cc1nnc(C2CCN(c3ccncc3NC(=O)c3c(N)nn4cc(F)cnc34)CC2)o1` [I-N-265, 2-amino-6-fluoro-N-(4-(4-(5-methyl-1,3,4-oxadiazol-2-yl)piperidin-1-yl)pyridin-3-yl)pyrazolo[1,5-a]pyrimidine-3-carboxamide] was tested, and the “Cisplatin Sensitization Assay” value was “++ (Compounds with a Cisplatin sensitization value >0.02 μM but <0.2 μM are marked with “++.”)”.
With `CN1CCN(CC2CCN(c3c(F)cncc3NC(=O)c3c(N)nn4cc(F)cnc34)CC2)C(=O)C1` [I-N-193, 2-amino-6-fluoro-N-(5-fluoro-4-(4-((4-methyl-2-oxopiperazin-1-yl)methyl)piperidin-1-yl)pyridin-3-yl)pyrazolo[1,5-a]pyrimidine-3-carboxamide] the “Cisplatin Sensitization Assay” value was “+++ (Compounds with a Cisplatin sensitization value of <0.02 μM are marked with “+++.”)”.
For `Nc1nn2cc(F)cnc2c1C(=O)Nc1cnccc1OC1CCN(C2COC2)CC1` [I-O-11, 2-amino-6-fluoro-N-(4-((1-(oxetan-3-yl)piperidin-4-yl)oxy)pyridin-3-yl)pyrazolo[1,5-a]pyrimidine-3-carboxamide], the “Cisplatin Sensitization Assay” value was “+++ (Compounds with a Cisplatin sensitization value of <0.02 μM are marked with “+++.”)”.
`CN1CCC[C@@H]1C(=O)N1CCN(c2c(F)cncc2NC(=O)c2c(N)nn3cc(F)cnc23)CC1` [I-N-181, (R)-2-amino-6-fluoro-N-(5-fluoro-4-(4-(1-methylpyrrolidine-2-carbonyl)piperazin-1-yl)pyridin-3-yl)pyrazolo[1,5-a]pyrimidine-3-carboxamide] was tested, and the “Cisplatin Sensitization Assay” value was “+++ (Compounds with a Cisplatin sensitization value of <0.02 μM are marked with “+++.”)”.
`N#CCc1cnc2c(C(=O)Nc3cnccc3OC3CNC3)c(N)nn2c1` [I-O-82, 2-amino-N-(4-(azetidin-3-yloxy)pyridin-3-yl)-6-(cyanomethyl)pyrazolo[1,5-a]pyrimidine-3-carboxamide] was tested, and the “Cisplatin Sensitization Assay” value was “++ (Compounds with a Cisplatin sensitization value >0.02 μM but <0.2 μM are marked with “++.”)”.
`Nc1nn2cc(F)cnc2c1C(=O)Nc1cncc(Cl)c1N1CCC(C(=O)N2CCNCC2)CC1` [I-G-48, 2-amino-N-(5-chloro-4-(4-(piperazine-1-carbonyl)piperidin-1-yl)pyridin-3-yl)-6-fluoropyrazolo[1,5-a]pyrimidine-3-carboxamide] was tested, and the “Cisplatin Sensitization Assay” value was “+++ (Compounds with a Cisplatin sensitization value of <0.02 μM are marked with “+++.”)”.
With `Nc1nn2cc(F)cnc2c1C(=O)Nc1cncc(F)c1N1CCC(C(=O)N2CCNC3CC32)CC1` (stereo not shown) [I-G-62, N-(4-(4-(2,5-diazabicyclo[4.1.0]heptane-2-carbonyl)piperidin-1-yl)-5-fluoropyridin-3-yl)-2-amino-6-fluoropyrazolo[1,5-a]pyrimidine-3-carboxamide] the “Cisplatin Sensitization Assay” value was “+++ (Compounds with a Cisplatin sensitization value of <0.02 μM are marked with “+++.”)”.
With `Nc1nn2cc(Cl)cnc2c1C(=O)Nc1cnccc1N1CCC(N2CC(F)(F)C2)CC1` [I-N-108, 2-amino-6-chloro-N-(4-(4-(3,3-difluoroazetidin-1-yl)piperidin-1-yl)pyridin-3-yl)pyrazolo[1,5-a]pyrimidine-3-carboxamide] the “Cisplatin Sensitization Assay” value was “+++ (Compounds with a Cisplatin sensitization value of <0.02 μM are marked with “+++.”)”.
In the case of `Nc1nn2cc(F)cnc2c1C(=O)Nc1cncc(F)c1N1CCCC1` [I-N-246, 2-amino-6-fluoro-N-(5-fluoro-4-(pyrrolidin-1-yl)pyridin-3-yl)pyrazolo[1,5-a]pyrimidine-3-carboxamide], the “Cisplatin Sensitization Assay” value was “++ (Compounds with a Cisplatin sensitization value >0.02 μM but <0.2 μM are marked with “++.”)”.
`Cc1nc(C(=O)N2CCN(C)CC2)ccc1-c1ccncc1NC(=O)c1c(N)nn2cc(F)cnc12` [I-C-39, 2-amino-6-fluoro-N-(2-methyl-6-(4-methylpiperazine-1-carbonyl)-[3,4′-bipyridin]-3′-yl)pyrazolo[1,5-a]pyrimidine-3-carboxamide] was tested, and the “Cisplatin Sensitization Assay” value was “+++ (Compounds with a Cisplatin sensitization value of <0.02 μM are marked with “+++.”)”.
For `Nc1nn2cc(Cl)cnc2c1C(=O)Nc1cnccc1N1CCNC(C(F)(F)F)C1` (stereo not shown) [I-N-70, 2-amino-6-chloro-N-(4-(3-(trifluoromethyl)piperazin-1-yl)pyridin-3-yl)pyrazolo[1,5-a]pyrimidine-3-carboxamide], the “Cisplatin Sensitization Assay” value was “++ (Compounds with a Cisplatin sensitization value >0.02 μM but <0.2 μM are marked with “++.”)”.
With `CN1CCN(c2c(F)cncc2NC(=O)c2c(N)nn3cc(F)cnc23)CC1` [I-N-15, 2-amino-6-fluoro-N-(5-fluoro-4-(4-methylpiperazin-1-yl)pyridin-3-yl)pyrazolo[1,5-a]pyrimidine-3-carboxamide] the “Cisplatin Sensitization Assay” value was “+++ (Compounds with a Cisplatin sensitization value of <0.02 μM are marked with “+++.”)”.
For `CN1CCOC[C@@H]1c1ccc(-c2ccncc2NC(=O)c2c(N)nn3cc(F)cnc23)cc1` [I-C-66, (S)-2-amino-6-fluoro-N-(4-(4-(4-methylmorpholin-3-yl)phenyl)pyridin-3-yl)pyrazolo[1,5-a]pyrimidine-3-carboxamide], the “Cisplatin Sensitization Assay” value was “+++ (Compounds with a Cisplatin sensitization value of <0.02 μM are marked with “+++.”)”.
`Nc1nn2cc(Cl)cnc2c1C(=O)Nc1cnccc1N1CCC(N2CCC23COC3)CC1` [I-N-109, N-(4-(4-(6-oxa-1-azaspiro[3.3]heptan-1-yl)piperidin-1-yl)pyridin-3-yl)-2-amino-6-chloropyrazolo[1,5-a]pyrimidine-3-carboxamide] was tested, and the “Cisplatin Sensitization Assay” value was “+++ (Compounds with a Cisplatin sensitization value of <0.02 μM are marked with “+++.”)”.
`CC(C)N1CCC(C(=O)N2CCN(c3c(F)cncc3NC(=O)c3c(N)nn4cc(F)cnc34)CC2)C1` (stereo not shown) [I-N-206, 2-amino-6-fluoro-N-(5-fluoro-4-(4-(1-isopropylpyrrolidine-3-carbonyl)piperazin-1-yl)pyridin-3-yl)pyrazolo[1,5-a]pyrimidine-3-carboxamide] was tested, and the “Cisplatin Sensitization Assay” value was “+++ (Compounds with a Cisplatin sensitization value of <0.02 μM are marked with “+++.”)”.
